One compound from patent US20250099625A1, “TANDEM MOLECULAR FLUORESCENCE REPORTERS FOR DETECTION OF TUMOR-INFILTRATING LEUKOCYTES” (Nanyang Technological University, priority 2021, published 2025) can be followed below.

The test system of the assay is 4T1 tumor. Nature of the assay: Therapeutic efficacy, 4T1 tumor-bearing mice.

Experimental: (c) Tumor growth curves (n=6) and (d) overall survival curves (n=6) of 4T1 tumor-bearing mice. […] 95% confidence intervals were obtained by two-sided Student t-test analysis. […] Data are presented as mean±SD and analyzed by two-tailed Student's t-test.
FIG. 47 depicts the tumor control rate and body weights of mice. […] (c) Body weights of 4T1 tumor-bearing mice after intraperitoneal injection of saline, Oxa (6 mg/kg), aPD-L1 (10 mg/kg) and aPD-L1/Oxa at day 0, 2 and 4. […] Statistical significance was performed by two-tailed Student's t-test. ns: not significant, *P<0.05, **P<0.01, ***P<0.001, ****P<0.0001.
After tumor inoculation for one week, 4T1 tumor-bearing mice were administrated with aPD-L1 (10 mg/kg), Oxa (6 mg/kg) or the combination of aPD-L1 and Oxa (aPD-L1/Oxa) intraperitoneally every two days for three times.
The tumor control rate was calculated with the following formulas:
Vt0 means the volume of tumor on day 0, Vt means the volume at certain time, c means the control group (saline, without irradiation), and s means the group needed calculation.

The compound `O=C1[O][Pt]2([NH][C@@H]3CCCC[C@H]3[NH]2)[O]C1=O` [Oxa, oxaliplatin] gave a survival rate of 50%. The “tumor control rate (TCR)” value (intraperitoneal, every two days for three times) was determined as 48%.
